Assay results: publication PMC9369442, “Synthetic Peucedanocoumarin IV Prevents α-Synuclein Neurotoxicity in an Animal Model of Parkinson’s Disease” (International Journal of Molecular Sciences, 2022)

Assays:
[1] = test system: SH-SY5Y cells with Tet-Off conditional expression of β23; experiment: Trypan blue exclusion cell viability assay, Tet-Off β23 expression; format: cell-based; conditions: for effect on β23-induced cytotoxicity: 1 μM, 24 h; for EC50: Homo sapiens, Tet-Off β23, trypan blue exclusion, read-out: median effective concentration, cytoprotection against β23 toxicity; for cytotoxicity of the compound at high concentrations: up to 4 µM
Experimental: Figure 1 Peucedanocoumarin IV (PCiv) inhibits β23 aggregations and cytotoxicity in SH-SY5Y cells. (A) Scheme showing the detailed experimental steps in the organic synthesis of racemic PCiv and racemic PCiii (rac-PCiii, and rac-PCiv). Both PCiii and PCiv used in this study are racemic forms. (B) Trypan blue exclusion cell viability assessment in SH-SY5Y cells with Tet-Off-induced β23 expressions. β23 was expressed for 24 h using the Tet-off system. Further expression of β23 was halted by doxycycline (Dox) treatment with simultaneous treatment of the PCiii, PCiv, or their synthetic intermediate, trans-khellatone (t-khellatone, 1 μM 24 h). Cell viability was assessed 24 h after doxycycline treatment (n = 5 per group). (C) Synthetic PCiv’s protective effect on Tet-Off-expressed β23 toxicity in SH-SY5Y cells compared with peucedanocoumarin III (PCiii) determined by trypan blue exclusion assay. (D) The degradation of β23 monitored by Western blot at 37 h after doxycycline (200 ng/mL) treatment. The representative Western blot image of HA (β23) in SH-SY5Y cells treated with synthetic PCiii, synthetic PCiv (1 μM, 37 h), or DMSO as a vehicle. (E) Quantification of HA (β23) expression in SH-SY5Y cells from the indicated experimental groups in panel D (n = 3 experiments per group). (F) Representative immunofluorescence of steady state HA (β23) expression in SH-SY5Y cells expressing Tet-Off regulatable reporter mCherry and HA-tagged β23. HA-β23 was expressed for 24 h using the Tet-off system. Further expression of β23 was halted by Dox treatment in the presence of PCiii or PCiv (1 μM, 37 h). (G) Quantification of HA (β23) immunofluorescence signal in mCherry positive SH-SY5Y cells in each experimental group (n = 32 cells from three separate experiments per group). The data are expressed as means ± SEMs. * p < 0.05, ** p < 0.01, *** p < 0.001, and **** p < 0.0001, ANOVA test followed by Tukey’s post hoc analysis. Two-way ANOVA was used in panel C.
Human neuroblastoma SH-SY5Y cells (ATCC, Manassas, VA, USA) were grown in complete media containing DMEMs, 10% fetal bovine serum (vol/vol), and antibiotics (penicillin-streptomycin 100 U/mL, Thermo Fisher Scientific, Waltham, MA, USA). The atmospheric condition used to preserve the cells consisted of 5% CO2/95% air at 37 °C and maintained a humidified environment. X-tremeGENE HP transfection reagents (Roche, Basel, Switzerland) were used for transient transfection of DNA constructs (pCMV-tTA, TetP-β23, and pTet-dual2 [5]) following the manufacturer’s instructions.
SH-SY5Y cells were plated in 12-well plates at a density of 0.2 × 10^6 cells per well. Following transient transfection with the indicated constructs and subsequent treatment protocol, the cells were harvested by trypsinization, thereby yielding single-cell suspensions. The cells were washed twice with phosphate-buffered saline (PBS) and resuspended in serum-free DMEM. The resuspended cells were mixed with an equal volume of 0.4% trypan blue (w/v) and incubated for 2 min at room temperature. Live and dead cells were counted using a Countess II Automated Cell Counter (Life Technologies, Carlsbad, CA, USA) for assessing cell viability.

[2] = test system: α-synuclein PFF-treated mice cortical neurons; experiment: PFF-induced α-synucleinopathy in primary cortical neurons, immunofluorescence; format: cell-based, mouse; conditions: for endogenous α-synuclein expression: PBS- or PFF-treated mouse cortical neurons
Experimental: Figure 2 PCiv prevents α-synuclein aggregation in vitro and in cultured neurons with PFF treatment. (A) Representative Western blots showing the degree of recombinant α-synuclein (αSyn) aggregation in a test tube in the presence or absence of PCiv (100 μM) at the indicated incubation duration (phosphate-buffered saline [PBS], 37 °C for 3 or 5 days). Aggregation of α-synuclein was determined using α-synuclein antibody. (B) Quantification of the relative amount of α-synuclein aggregate in high molecular weight sizes in panel A (n = 3 per group). (C) Representative immunofluorescence of MAP2 and Lewy-like inclusion marker pS129-αSyn in mice cortical neurons treated with α-synuclein preformed fibril (PFF) (1 μg, for 14 days). To evaluate the protective effects of PCiv as compared with PCiii, these compounds were treated (1 μM every 2 days for 14 days) following the PFF treatment. (D) Quantification of pS129-αSyn immunofluorescence signal intensities in MAP2-positive cortical neurons in each experimental group (n = 15 cells from three separate experiments). (E) Cell viability assessment in the indicated experimental groups was monitored by CCK-8 assay (n = 3 per group). The data are expressed as means ± SEMs. * p < 0.05, ** p < 0.01, *** p < 0.001, and **** p < 0.0001, ANOVA test followed by Tukey’s post hoc analysis.
CD1 mice were purchased from Orient Co. for use in the mouse primary neuron culture. E14 embryos from CD1 mice were dissected for primary cortical neurons in Neurobasal A medium (Gibco, Thermo Fisher Scientific Inc., Waltham, MA, USA) supplemented with B-27 (Gibco, Thermo Fisher Scientific Inc., Waltham, MA, USA) and 1 mM L-glutamine. Next, the primary cortical neurons were maintained in a poly L-lysine-coated tissue culture plate, and the medium was changed every 2–3 days. After 7 days, PFF was added to the cortical neurons and incubated for 14 days to observe the p-S129-α-synuclein signal which was used for immunofluorescence analysis. […] The optical value was read at 450 nm using a multi-detection microplate reader (Synergy, BioTek Instruments Inc., Winooski, VT, USA). […]
(A) Representative Western blots showing the degree of recombinant α-synuclein (αSyn) aggregation in a test tube in the presence or absence of t-Khellatone, PCiii, and PCiv (100 μM) at 0 and 5 days of incubation (phosphate-buffered saline [PBS], 37 °C for 5 days). Aggregation of α-synuclein was determined using α- synuclein antibody. (B) Quantification of relative amount of α-synuclein aggregate in high molecular weight sizes in panel A (n = 3 per group). […] (D) Quantification of filament conformation-αSyn (Filament) immunofluorescence signal intensities in MAP2 -positive cortical neurons in each experimental group (n = 15 cells from three separate experiments). […]

[3] = 1 μM every 2 days for 14 days, PFF 1 μg

SMILES | effect on β23-induced cytotoxicity [1] | EC50 [1] [nM] | cytotoxicity of the compound at high concentrations [1] | endogenous α-synuclein expression [2] | PFF-induced elevation of filament conformation-αSyn signal [2, 3] | PFF-induced elevation of pS129-αSyn signal [2, 3]
C/C=C(\C)C(=O)O[C@@H]1c2c(ccc3ccc(=O)oc23)OC(C)(C)[C@H]1OC(C)=O (relative stereo) [PCiii, peucedanocoumarin III] | potently prevented | 318 | no obvious cytotoxicity | not affected | – | –
C/C=C(\C)C(=O)O[C@H]1[C@H](OC(C)=O)c2c(ccc3ccc(=O)oc23)OC1(C)C (relative stereo) [PCiv, trans-4′-acetyl-3′-tigloylkhellactone] | nearly equivalent cytoprotective biological function | 204 | no obvious cytotoxicity | not affected | mitigated | mitigated
